Data taken from patent US20100041896A1, “Macrolide compound with bis-oxazoly” (priority 2008, published 2010).
≈ marks a conversion by molar mass, not a printed value.

Key:
[1] = Solubility (physical and chemical properties); type: physicochemical
K562 cells = assay: anti-tumor in vitro experiment, K562 cell growth inhibition (trypan blue counting); type: cell-based; conditions: Homo sapiens, 48 hours at 37° C., trypan blue living-cell count, read-out: median inhibitory concentration IC50
Description: Implementation case 3: anti-tumor in vitro experiments
The cultivation condition for K562 cells (human chronic myeloid leukemia leap cell lines) is: the volume fraction of 10 percent of the calf serum RPMI1640, penicillin (100 IU/ml) and streptomycin (100 μg/ml), at 37° C., 5% CO2 incubation box for cultivation. Take the logarithm growth period cells used for the inhibition rate experiments, with the concentration of cells inoculated 2.5×10^5/ml. In the 96-pore cultivation board, K562 cells are vaccinated with the inoculation amount of about 5×10^4/pore, 200 μl each pore. The drug is dissolved in dimethyl sulfoxide (DMSO), making the storage fluid of 10 mg/ml. Four groups are set up in this experiment, adding different concentrations of drugs respectively, so that the final concentrations are respectively 0.1, 1, 10, 100 μg/ml. There is no drug added for the reference control group, and three parallel holes are set up for each group, cultivating at 37° C. for 48 hours. Taking 0.4 percent trypan blue liquid (take 4 g trypan blue and put it into 100 ml PBS, making four percent trypan blue raw fluid, filtrated and disinfected, stored in 4° C. refrigerator, ready to use. Concentration is of 0.4 percent) and the cell suspension fluid, 50 μl respectively, mixing, and then take appropriate mixed fluid to fill in cell counting board, counting the four big grid non-coloring living cells. […]

Solubility ([1]; in methyl alcohol, ethyl acetate and dimethylsulfoxide): soluble | Solubility ([1]; in n-hexane or petroleum ether): nearly insoluble | Solubility ([1]; in water): insoluble | IC50 (K562 cells): 12.4 µg/mL (≈ 24.8 µM)
SMILES: C/C1=C/[C@H](C)C[C@H](C)[C@H](Cc2cnco2)OC(=O)/C(C)=C\[C@H](C)C[C@H](C)C(Cc2cnco2)OC1=O (stereo partly shown) [FW-04-806]
